In patent US20250129074A1, “CHIMERIC COMPOUND FOR TARGETED DEGRADATION OF ANDROGEN RECEPTOR PROTEIN, PREPARATION METHOD THEREFOR, AND MEDICAL USE THEREOF” (Jiangsu Hengrui Pharmaceuticals Co., Ltd., priority 2021, published 2025):
Like-named read-outs stand apart in the source and are kept apart here.

How the values were obtained:
LNCaP cells = assay: Inhibition of LNCaP proliferation (CellTiter-Glo); assay type: cell-based; conditions: Homo sapiens, 144 h, 0.1 nM R1881, six days; for Emax: read-out: Max (maximum proliferation inhibition rate)
Method: The plate was incubated in a 37° C., 5% CO2 cell incubator for three days. […] A blank control cell well containing 0.5% DMSO and a cell-free vehicle control well were set up. The plate was incubated in a 37° C., 5% CO2 cell incubator for six days.

androgen receptor (AR) = target: T1, androgen receptor (AR) (Homo sapiens, UniProt P10275, T878A); assay: Degradation activity on androgen receptor in LNCaP cells (AR ELISA); assay type: cell-based; conditions: for Dmax: read-out: Max (maximum AR degradation rate)
T1 construct: host or cells: LNCaP human prostate cancer cells
T1 sequence (P10275 1-920 T878A): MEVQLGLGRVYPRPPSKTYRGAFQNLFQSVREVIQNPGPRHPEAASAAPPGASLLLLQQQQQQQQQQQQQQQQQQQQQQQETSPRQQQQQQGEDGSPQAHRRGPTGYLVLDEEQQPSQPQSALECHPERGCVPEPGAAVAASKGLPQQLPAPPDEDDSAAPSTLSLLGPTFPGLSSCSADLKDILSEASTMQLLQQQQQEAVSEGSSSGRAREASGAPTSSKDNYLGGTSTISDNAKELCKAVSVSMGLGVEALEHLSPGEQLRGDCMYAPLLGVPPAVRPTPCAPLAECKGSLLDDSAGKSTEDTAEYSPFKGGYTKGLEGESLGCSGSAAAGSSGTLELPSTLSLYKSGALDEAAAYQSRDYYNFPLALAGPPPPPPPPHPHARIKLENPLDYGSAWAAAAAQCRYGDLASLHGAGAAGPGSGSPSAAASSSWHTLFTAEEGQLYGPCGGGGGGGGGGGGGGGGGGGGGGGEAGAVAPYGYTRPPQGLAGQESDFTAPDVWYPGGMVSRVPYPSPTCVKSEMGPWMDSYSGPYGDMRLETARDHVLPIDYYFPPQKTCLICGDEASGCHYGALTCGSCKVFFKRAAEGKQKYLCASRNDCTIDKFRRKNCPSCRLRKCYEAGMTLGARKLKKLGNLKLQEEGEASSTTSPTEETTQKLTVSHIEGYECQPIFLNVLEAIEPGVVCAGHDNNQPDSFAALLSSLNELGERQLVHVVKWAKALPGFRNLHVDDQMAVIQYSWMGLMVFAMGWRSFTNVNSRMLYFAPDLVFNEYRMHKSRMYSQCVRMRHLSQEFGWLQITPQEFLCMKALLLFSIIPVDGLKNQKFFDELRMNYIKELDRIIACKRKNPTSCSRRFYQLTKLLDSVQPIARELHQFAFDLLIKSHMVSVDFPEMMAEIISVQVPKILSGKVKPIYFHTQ
Method: The plate was incubated in a 37° C., 5% CO2 cell incubator for three days. […] A blank control cell well containing 0.5% DMSO was set up. The plate was incubated in a 37° C., 5% CO2 cell incubator for 24 hours. […] The lysate was well mixed by pipetting up and down and then centrifuged at 4000 rpm at 4° C. for 10 minutes. […] The plate was sealed and incubated in a 37° C. incubator for 1 hour. […] The plate was sealed and then incubated in a 37° C. incubator for 30 minutes.

[1] = 0.1 nM R1881, 24 hours, read-out: LNCaP DC50
[2] = read-out: LNCaP DC50, 0.1 nM R1881, 24 hours

Row | Compound | IC50 (LNCaP cells) | Emax (LNCaP cells) | DC50 (androgen receptor (AR); [1]) | Dmax (androgen receptor (AR); 0.1 nM R1881, 24 hours) | DC50 (androgen receptor (AR); [2])
1 | Cc1c(N2CCC3(CCN(c4ccc(C(=O)N5CCC(CN6CCN(c7cccc(NC8CCC(=O)NC8=O)c7)CC6)CC5)cc4)CC3)C2)ccc(C#N)c1Cl (racemic) [Example 38, (±)-2-Chloro-4-(8-(4-(4-((4-(3-((2,6-dioxopiperidin-3-yl)amino)phenyl)piperazin-1-yl)methyl)piperidine-1-carbonyl)phenyl)-2,8-diazaspiro[4.5]decan-2-yl)-3-methylbenzonitrile] | 49 nM | 60% | 11.7 nM | 96% | 
2 | C[C@H]1CC2(CCN(c3ccc(C(=O)N4CCC(N5CCN(c6ccc(C(=O)NC7CCC(=O)NC7=O)c(F)c6)CC5)CC4)cc3)CC2)CN1c1ccc(C#N)c(Cl)c1 (stereo partly drawn) [Example 1, 4-(4-(1-(4-((S)-2-(3-Chloro-4-cyanophenyl)-3-methyl-2,8-diazaspiro[4.5]decan-8-yl)benzoyl)piperidin-4-yl)piperazin-1-yl)-N-(2,6-dioxopiperidin-3-yl)-2-fluorobenzamide] | 183 nM | 63% |  | 89% | 10.6 nM
3 | C[C@H]1CC2(CCN(c3ccc(C(=O)N4CCC(N5CCN(c6ccc(C(=O)NC7CCC(=O)NC7=O)nc6)CC5)CC4)cc3)CC2)CN1c1ccc(C#N)c(Cl)c1 (stereo partly drawn) [Example 2, 5-(4-(1-(4-((S)-2-(3-Chloro-4-cyanophenyl)-3-methyl-2,8-diazaspiro[4.5]decan-8-yl)benzoyl)piperidin-4-yl)piperazin-1-yl)-N-(2,6-dioxopiperidin-3-yl)picolinamide] | 164 nM | 62% |  | 90% | 5.1 nM
4 | C[C@H]1CC2(CCN(c3ccc(C(=O)N4CCC(CN5CCN(c6ccc(C(=O)NC7CCC(=O)NC7=O)c(F)c6)CC5)CC4)cc3)CC2)CN1c1ccc(C#N)c(Cl)c1 (stereo partly drawn) [Example 3, 4-(4-((1-(4-((S)-2-(3-Chloro-4-cyanophenyl)-3-methyl-2,8-diazaspiro[4.5]decan-8-yl)benzoyl)piperidin-4-yl)methyl)piperazin-1-yl)-N-(2,6-dioxopiperidin-3-yl)-2-fluorobenzamide] | 286 nM | 60% | 22.1 nM | 89% | 
5 | C[C@H]1CC2(CCN(c3ccc(C(=O)N4CCC(CN5CCN(c6ccc(C(=O)NC7CCC(=O)NC7=O)nc6)CC5)CC4)cc3)CC2)CN1c1ccc(C#N)c(Cl)c1 (stereo partly drawn) [Example 4, 5-(4-((1-(4-((S)-2-(3-Chloro-4-cyanophenyl)-3-methyl-2,8-diazaspiro[4.5]decan-8-yl)benzoyl)piperidin-4-yl)methyl)piperazin-1-yl)-N-(2,6-dioxopiperidin-3-yl)picolinamide] | 135 nM | 58% | 20.2 nM | 92% | 
6 | C[C@H]1CC2(CCN(C(=O)c3ccc(SC4CCN(C5CN(c6ccc(C(=O)NC7CCC(=O)NC7=O)c(F)c6)C5)CC4)nc3)CC2)CN1c1ccc(C#N)c(Cl)c1 (stereo partly drawn) [Example 5, 4-(3-(4-((5-((S)-2-(3-Chloro-4-cyanophenyl)-3-methyl-2,8-diazaspiro[4.5]decane-8-carbonyl)pyridin-2-yl)thio)piperidin-1-yl)azetidin-1-yl)-N-(2,6-dioxopiperidin-3-yl)-2-fluorobenzamide] | 189 nM | 72% |  | 86% | 30.5 nM
7 | C[C@H]1CC2(CCN(c3ccc(C(=O)N4CCC(N5CCC(N6CCN(c7ccc(N8CCC(=O)NC8=O)cc7)CC6)CC5)CC4)cc3)CC2)CN1c1ccc(C#N)c(Cl)c1 [Example 6, (S)-2-Chloro-4-(8-(4-(4-(4-(4-(2,4-dioxotetrahydropyrimidin-1(2H)-yl)phenyl)piperazin-1-yl)-[1,4′-bipiperidine]-1′-carbonyl)phenyl)-3-methyl-2,8-diazaspiro[4.5]decan-2-yl)benzonitrile] | 24.6 nM | 50% | 5.7 nM | 86% | 
8 | C[C@H]1CC2(CCN(c3ccc(C(=O)N4CCC(N5CC(N6CCN(c7ccc(N8CCC(=O)NC8=O)cc7)CC6)C5)CC4)cc3)CC2)CN1c1ccc(C#N)c(Cl)c1 [Example 7, (S)-2-Chloro-4-(8-(4-(4-(3-(4-(4-(2,4-dioxotetrahydropyrimidin-1(2H)-yl)phenyl)piperazin-1-yl)azetidin-1-yl)piperidine-1-carbonyl)phenyl)-3-methyl-2,8-diazaspiro[4.5]decan-2-yl)benzonitrile] | 4.6 nM | 53% | 1 nM | 93% | 
9 | C[C@H]1CC2(CCN(c3ccc(C(=O)N4CCC(CN5CC(N6CCN(c7ccc(N8CCC(=O)NC8=O)cc7)CC6)C5)CC4)cc3)CC2)CN1c1ccc(C#N)c(Cl)c1 [Example 8, (S)-2-Chloro-4-(8-(4-(4-((3-(4-(4-(2,4-dioxotetrahydropyrimidin-1(2H)-yl)phenyl)piperazin-1-yl)azetidin-1-yl)methyl)piperidine-1-carbonyl)phenyl)-3-methyl-2,8-diazaspiro[4.5]decan-2-yl)benzonitrile] | 9.8 nM | 31% | 1.6 nM | 85% | 
10 | C[C@H]1CC2(CCN(c3ccc(C(=O)N4CCC(CN5CCC(N6CCN(c7ccc(N8CCC(=O)NC8=O)cc7)CC6)CC5)CC4)cc3)CC2)CN1c1ccc(C#N)c(Cl)c1 [Example 9, (S)-2-Chloro-4-(8-(4-(4-((4-(4-(4-(2,4-dioxotetrahydropyrimidin-1(2H)-yl)phenyl)piperazin-1-yl)piperidin-1-yl)methyl)piperidine-1-carbonyl)phenyl)-3-methyl-2,8-diazaspiro[4.5]decan-2-yl)benzonitrile] | 69 nM | 59% | 12.9 nM | 92% | 
11 | C[C@H]1CC2(CCN(c3ccc(C(=O)N4CC(CN5CCN(c6cccc(NC7CCC(=O)NC7=O)c6)CC5)C4)nn3)CC2)CN1c1ccc(C#N)c(Cl)c1 (stereo partly drawn) [Example 22, 2-Chloro-4-((3S)-8-(6-(3-((4-(3-((2,6-dioxopiperidin-3-yl)amino)phenyl)piperazin-1-yl)methyl)azetidine-1-carbonyl)pyridazin-3-yl)-3-methyl-2,8-diazaspiro[4.5]decan-2-yl)benzonitrile] |  |  | 0.4 nM | 97% | 
12 | C[C@H]1CC2(CCN(c3ccc(C(=O)N4CCC(CN5CCN(c6ccccc6NC6CCC(=O)NC6=O)CC5)CC4)cc3)CC2)CN1c1ccc(C#N)c(Cl)c1 (stereo partly drawn) [Example 39, 2-Chloro-4-((3S)-8-(4-(4-((4-(2-((2,6-dioxopiperidin-3-yl)amino)phenyl)piperazin-1-yl)methyl)piperidine-1-carbonyl)phenyl)-3-methyl-2,8-diazaspiro[4.5]decan-2-yl)benzonitrile] |  |  | 13.9 nM | 86% | 
13 | C[C@H]1CC2(CCN(c3ccc(C(=O)N4CCC(CN5CCN(c6ccc(C(=O)NC7CCC(=O)NC7=O)cc6)CC5)CC4)cc3)CC2)CN1c1ccc(C#N)c(Cl)c1 (stereo partly drawn) [Example 43, 4-(4-((1-(4-((S)-2-(3-Chloro-4-cyanophenyl)-3-methyl-2,8-diazaspiro[4.5]decan-8-yl)benzoyl)piperidin-4-yl)methyl)piperazin-1-yl)-N-(2,6-dioxopiperidin-3-yl)benzamide] |  |  | 9.3 nM | 92% | 
